Data reported in article PMC11232401, “Characterization of antimalarial activity of artemisinin-based hybrid drugs” (Antimicrobial Agents and Chemotherapy, 2024).

Columns and labels:
[1] = set-up: method as in PMID 15124211; details: cited from earlier work
[2] = Quantification of hybrid 1 in uRBC-derived supernatants by HPLC and fluorescence; assay type: in vitro ADME, human
Procedure: Each well of 96-well plates was filled with 125 µL drug (1000 nM) and 125 µL uninfected red blood cells (uRBC), which were mixed to obtain a final drug concentration of 500 nM and 2.5% or 1.0% hematocrit. The plates were incubated at 37°C in the standard gas mixture. After each time point (10 min, 6 h, and 24 h), supernatants were carefully harvested and stored at −80°C until use. Untreated uRBC incubated at the same times were used as negative controls, and DHA and AQ were employed as standard drugs. Next, supernatants were diluted in a complete medium in six different dilutions and were aliquoted in new plates. The antimalarial activity of these supernatants and freshly dissolved drugs was determined in an asynchronous parasite culture of P. falciparum (3D7, D10, and W2 strains) for 72 h using the same method described above, and parasite viability was assessed by the pLDH ([38]) and SYBR Green I ([41]) methods. […] Decay in drug concentration was estimated by using the normalized slope values calculated from linear regression fits using the slope values of a standard curve as reference. […]
To test the association between the antimalarial activity of hybrid 1 supernatants and chemical stability, the concentration of hybrid 1 in these supernatants was quantified by high-performance liquid chromatography (HPLC) and fluorescence in a microplate reader. The concentration of hybrid 1 remained constant under incubation with PBS over the analyzed time (Fig. 3E; Fig. S1). […] Moreover, we defined the slopes calculated from linear regression fits to accurately reflect the effective decay in drug concentration because peroxides could covalently bind to proteins present in the supernatant. […]
Figure S1: Quantification of hybrid LH70 (1) by fluorescence and HPLC in the uRBC-derived supernatants. […] The drug was quantified in the supernatant of the cell culture after the second and third steps of medium replacement and washing out. […] RFU = relative fluorescence units.

SMILES	plasma peak of DHA in patients [1] [nM]	concentration of hybrid 1 in supernatant at 24 h ([2]; uRBC hematocrit 2.5%, start 500 nM, HPLC) [nM]	Maximum rate of reduction of drug concentration between 10 min and 24 h, HPLC ([2]; uRBC supernatants, slopes of linear regression fits, HPLC) [%]	Maximum rate of reduction of drug concentration between 10 min and 24 h, fluorescence microplate reader ([2]; uRBC supernatants, slopes of linear regression fits, fluorescence) [%]
C[C@H]1[C@@H](O)O[C@@H]2O[C@@]3(C)CC[C@H]4[C@H](C)CC[C@@H]1[C@@]24OO3 [DHA, dihydroartemisinin, reference compound]	700			
COCCOCCOCCOCCn1c(-c2ccc(-n3cc(-c4ccc(OC5OC6OC7(C)CCC8C(C)CCC(C5C)C68OO7)cc4)nn3)cc2)nc2ccccc21 (stereo not shown) [Hybrid 1]		256	56.4	65.4
